Data published in patent publication US11034659B2, “Pyrimidine derivative” (Daiichi Sankyo Company, Limited, priority 2016, dated 2021).
Where a name gives a salt, the structure may show the parent alone.

System: CuFi-1 cells
Assay: Secretory activity for chloride ions (MQAE fluorescence) in CuFi-1 cells
Format: cell-based
Conditions: Homo sapiens, CuFi-1, CuFi-1 cells, zinc final concentration 10 μM
Procedure: Measurement of the secretory activity for chloride ions was performed in accordance with a previous report (West and Molloy, 1996). CuFi-1 cells were plated on a 96 well plate in 3×10^4 cells/well and incubated for two nights. After removing the culture medium, 100 μL/well of N-(ethoxycarbonylmethyl)-6-methoxyquinolinium bromide (MQAE) (diluted with culture medium and the concentration adjusted to 5 mM) was added. After the addition of MQAE, the cells were incubated for one night so that the indicator was passively loaded. After the loading, the cells were washed two times with Assay buffer, and 100 μL/well of Assay buffer was added. The secretory capacity for chloride ions was measured using FlexStation 1 (fluorescence wavelength of Ex: 355 nm/Em: 460 nm). In order to measure the basic value, nothing was added for 34 seconds immediately after the start of the measurement. Then, at this point, 100 μL/well of the test compound and zinc (final concentration: 10 μM) diluted with Assay buffer, which is free of chloride ions, was added, and the measurement was continued for 86 seconds (total measurement time: 120 seconds). The secretory capacity for chloride ions was calculated by dividing the average of RFU values in 10 seconds between 110 seconds and 120 seconds after the start of the measurement with the average between 0 second and 34 seconds (the basic value). The secretory activity for chloride ions of the test compound (EC50 value) was calculated by obtaining the secretory capacity for chloride ions at each concentration of the serially diluted test compound, and determining a concentration of the test compound that provides a secretory capacity of 50% from two secretory capacities and concentrations sandwiching 50% of the maximum response of each compound.

Row | Structure (SMILES) | EC50
1 | Cc1ccc(COc2nc(C(=O)O)nc(C)c2Cc2ccccc2Cl)cn1 [Example 96] | 0.0024 µM
2 | CCCc1nc(C(=O)O)nc(OC)c1Cc1ccc(F)cc1Cl [Example 46] | 0.0159 µM
3 | Cc1nc(C(=O)O)nc(O[C@H]2C[C@@H](C#N)C2)c1Cc1ccccc1Cl [Example 92] | 0.0051 µM
4 | CNc1nc(-c2nnn[nH]2)nc(C)c1Sc1ccc(Cl)cc1Cl [Example 106] | 0.0029 µM
5 | CCNc1nc(C(=O)O)nc(C)c1Cc1ccc(Cl)cc1Cl [Example 1, 5-(2,4-Dichlorobenzyl)-4-(ethylamino)-6-methylpyrimidine-2-carboxylic acid hydrochloride] | 0.0094 µM
6 | CNc1nc(C(=O)O)nc(C)c1Oc1ccc(Cl)cc1Cl [Example 17, 5-(2,4-Dichlorophenoxy)-4-methyl-6-(methylamino)pyrimidine-2-carboxylic acid] | 0.0157 µM
7 | Cc1nc(C(=O)O)nc(SC(C)C)c1Sc1ccccc1Cl [Example 83, 5-((2-Chlorophenyl)thio)-4-(isopropylthio)-6-methylpyrimidine-2-carboxylic acid hydrochloride] | 0.0507 µM
8 | CCNc1nc(C(=O)O)nc(CC)c1Sc1ccc(Cl)cc1Cl [Example 21] | 0.0186 µM
9 | COc1ccc(Cc2c(C)nc(C(=O)O)nc2OC)c(Cl)c1 [Example 67] | 0.0159 µM
10 | Cc1nc(C(=O)O)nc(CCc2cccnc2)c1Cc1ccccc1Cl [Example 102] | 0.0052 µM
11 | Cc1nc(C(=O)O)nc(OCc2ccncc2)c1Cc1ccccc1Cl [Example 94] | 0.0022 µM
12 | CCc1nc(C(=O)O)nc(OCCCF)c1Cc1ccccc1Cl [Example 63] | 0.0048 µM
13 | CNc1nc(C(=O)O)nc(C)c1Sc1ccccc1C(C)C [Example 26] | 0.0144 µM
14 | CCc1nc(C(=O)O)nc(OC)c1Cc1ccc(Cl)cc1F [Example 42] | 0.0076 µM
15 | CCOc1nc(C(=O)O)nc(CC)c1Cc1cccc(F)c1Cl [Example 61] | 0.0114 µM
16 | Cc1nc(C(=O)O)nc(C)c1Cc1ccccc1Cl [Example 103, 5-(2-Chlorobenzyl)-4,6-dimethylpyrimidine-2-carboxylic acid] | 0.0208 µM
17 | CNc1nc(-c2nnn[nH]2)nc(C)c1Cc1ccc(Cl)cc1Cl [Example 105, 5-(2,4-Dichlorobenzyl)-N,6-dimethyl-2-(1H-tetrazol-5-yl)pyrimidin-4-amine] | 0.0021 µM
18 | CCCOc1nc(C(=O)O)nc(C)c1Cc1ccccc1Cl [Example 53] | 0.0158 µM
19 | CNc1nc(C(=O)O)nc(C)c1Sc1ccccc1 [Example 23] | 0.086 µM
20 | CCCNc1nc(C(=O)O)nc(C)c1Cc1ccc(Cl)cc1Cl [Example 2, 5-(2,4-Dichlorobenzyl)-4-methyl-6-(n-propylamino)pyrimidine-2-carboxylic acid hydrochloride] | 0.0242 µM
21 | CCNc1nc(C(=O)O)nc(C)c1Sc1ccccc1Cl [Example 18, 5-((2-Chlorophenyl)thio)-4-(ethylamino)-6-methylpyrimidine-2-carboxylic acid] | 0.0046 µM
22 | CCOc1nc(C(=O)O)nc(C)c1Oc1ccc(Cl)cc1Cl [Example 35] | 0.0293 µM

Row | Structure (SMILES) | EC50
23 | Cc1nc(C(=O)O)nc(OCc2ccc(F)cc2)c1Cc1ccccc1Cl [Example 97] | 0.0057 µM
24 | CNc1nc(C(=O)O)nc(C)c1Sc1ccccc1C [Example 27] | 0.014 µM
25 | CCOc1nc(C(=O)O)nc(CC)c1Cc1ccc(Cl)cc1F [Example 51] | 0.0082 µM
26 | Cc1nc(C(=O)O)nc(N[C@@H](C)C(N)=O)c1Cc1ccc(Cl)cc1Cl [Example 4, (S)-4-((1-Amino-1-oxopropan-2-yl)amino)-5-(2,4-dichlorobenzyl)-6-methylpyrimidine-2-carboxylic acid hydrochloride] | 0.0196 µM
27 | COc1nc(C(=O)O)nc(C)c1Cc1ccc(C(F)(F)F)cc1Cl [Example 68] | 0.004 µM
28 | Cc1nc(C(=O)O)nc(OC(C)C)c1Cc1ccccc1Cl [Example 74, 5-(2-Chlorobenzyl)-4-isopropoxy-6-methylpyrimidine-2-carboxylic acid] | 0.0334 µM
29 | CCOc1nc(C(=O)O)nc(C)c1Cc1ccc(F)cc1Cl [Example 49] | 0.0248 µM
30 | Cc1nc(C(=O)O)nc(NCC(C)(C)O)c1Cc1ccc(Cl)cc1Cl [Example 6, 5-(2,4-Dichlorobenzyl)-4-((2-hydroxy-2-methylpropyl)amino)-6-methylpyrimidine-2-carboxylic acid] | 0.0503 µM
31 | CCCc1nc(C(=O)O)nc(OC)c1Cc1ccc(Cl)cc1F [Example 47] | 0.0086 µM
32 | CCc1nc(C(=O)O)nc(OC)c1Cc1cccc(Cl)c1Cl [Example 41] | 0.0163 µM
33 | CCCOc1nc(C(=O)O)nc(CC)c1Cc1ccccc1Cl [Example 64] | 0.0149 µM
34 | CCOc1nc(C(=O)O)nc(C)c1Cc1ccc(OC)cc1Cl [Example 57] | 0.0208 µM
35 | CCc1nc(C(=O)O)nc(OC)c1Sc1ccc(Cl)cc1Cl [Example 37] | 0.0303 µM
36 | Cc1nc(C(=O)O)nc(NCCCOC(C)C)c1Cc1ccc(Cl)cc1Cl [Example 5, 5-(2,4-Dichlorobenzyl)-4-((3-isopropoxypropyl)amino)-6-methylpyrimidine-2-carboxylic acid] | 0.0303 µM
37 | CCCc1nc(C(=O)O)nc(OCC)c1Cc1ccc(Cl)cc1F [Example 58] | 0.013 µM
38 | Cc1nc(C(=O)O)nc(OCc2ccccc2F)c1Cc1ccccc1Cl [Example 99] | 0.0051 µM
39 | CNc1nc(C(=O)O)nc(C(C)C)c1Cc1ccccc1Cl [Example 13, 5-(2-Chlorobenzyl)-4-isopropyl-6-(methylamino)pyrimidine-2-carboxylic acid] | 0.0056 µM
40 | Cc1nc(C(=O)O)nc(C)c1Cc1ccc(Cl)cc1Cl [Example 104] | 0.0099 µM
41 | Cc1nc(C(=O)O)nc(OCc2cccc(F)c2)c1Cc1ccccc1Cl [Example 98] | 0.0135 µM
42 | COc1nc(C(=O)O)nc(C)c1Cc1ccc(F)cc1Cl [Example 69] | 0.0267 µM
43 | CCNc1nc(C(=O)O)nc(CC)c1Cc1ccccc1Cl [Example 12, 5-(2-Chlorobenzyl)-4-ethyl-6-(ethylamino)pyrimidine-2-carboxylic acid] | 0.0067 µM
44 | CNc1nc(C(=O)O)nc(C)c1Sc1cccc(Cl)c1Cl [Example 28] | 0.0028 µM

Row | Structure (SMILES) | EC50
45 | COc1nc(C(=O)O)nc(C(C)C)c1Cc1ccc(C(F)(F)F)cc1Cl [Example 72] | 0.0026 µM
46 | CCNc1nc(C(=O)O)nc(C)c1Oc1ccc(Cl)cc1Cl [Example 31] | 0.0349 µM
47 | CCc1nc(C(=O)O)nc(OC)c1Cc1cccc(F)c1Cl [Example 44] | 0.0094 µM
48 | Cc1nc(C(=O)O)nc(OCc2ccc(F)cc2F)c1Cc1ccccc1Cl [Example 100] | 0.0111 µM
49 | CCNc1nc(C(=O)O)nc(C)c1Nc1ccccc1Cl [Example 86, 5-((2-Chlorophenyl)amino)-4-(ethylamino)-6-methylpyrimidine-2-carboxylic acid hydrochloride] | 0.0131 µM
50 | CCNc1nc(C(=O)O)nc(C(C)C)c1Cc1ccccc1Cl [Example 14, 5-(2-Chlorobenzyl)-4-(ethylamino)-6-isopropylpyrimidine-2-carboxylic acid] | 0.005 µM
51 | CCc1nc(C(=O)O)nc(OC)c1Cc1ccccc1Cl [Example 39] | 0.0055 µM
52 | COc1nc(C(=O)O)nc(C)c1Sc1ccc(Cl)cc1Cl [Example 36] | 0.0806 µM
53 | Cc1nc(C(=O)O)nc(N)c1Cc1ccc(Cl)cc1Cl [Example 7, 4-Amino-5-(2,4-dichlorobenzyl)-6-methylpyrimidine-2-carboxylic acid trifluoroacetate] | 0.0417 µM
54 | Cc1nc(C(=O)O)nc(NC(C)C)c1Sc1ccccc1Cl [Example 30] | 0.0095 µM
55 | CCNc1nc(C(=O)O)nc(COC)c1Cc1ccc(Cl)cc1Cl [Example 16, 5-(2,4-Dichlorobenzyl)-4-(ethylamino)-6-(methoxymethyl)pyrimidine-2-carboxylic acid] | 0.0527 µM
56 | CCc1nc(C(=O)O)nc(SC)c1Cc1ccccc1Cl [Example 78] | 0.0046 µM
57 | COc1nc(C(=O)O)nc(C)c1Oc1ccc(Cl)cc1Cl [Example 34] | 0.0801 µM
58 | CCSc1nc(C(=O)O)nc(C)c1Cc1ccc(Cl)cc1Cl [Example 79, 5-(2,4-Dichlorobenzyl)-4-(ethylthio)-6-methylpyrimidine-2-carboxylic acid] | 0.0066 µM
59 | CCOc1nc(C(=O)O)nc(C)c1Cc1ccccc1Cl [Example 52, 5-(2-Chlorobenzyl)-4-ethoxy-6-methylpyrimidine-2-carboxylic acid hydrochloride] | 0.0158 µM
60 | Cc1nc(C(=O)O)nc(Cc2ccccc2Cl)c1Cc1ccccc1Cl [Example 88, 4,5-Bis(2-chlorobenzyl)-6-methylpyrimidine-2-carboxylic acid] | 0.0071 µM
61 | Cc1nc(C(=O)O)nc(NCC(=O)O)c1Cc1ccc(Cl)cc1Cl [Example 8, 4-((Carboxymethyl)amino)-5-(2,4-dichlorobenzyl)-6-methylpyrimidine-2-carboxylic acid hydrochloride] | 0.0506 µM
62 | CCOc1nc(C(=O)O)nc(C)c1Cc1cccc(Cl)c1Cl [Example 50] | 0.0102 µM
63 | CCc1nc(C(=O)O)nc(OC)c1Cc1ccccc1F [Example 43] | 0.0667 µM
64 | Cc1nc(C(=O)O)nc(OCc2cccnc2)c1Cc1ccccc1Cl [Example 93] | 0.0022 µM
65 | CCc1nc(C(=O)O)nc(OC)c1Cc1ccc(F)cc1Cl [Example 40] | 0.0081 µM
66 | COc1nc(C(=O)O)nc(C(C)C)c1Cc1ccc(Cl)cc1Cl [Example 71] | 0.0302 µM
